One assay deals with human EP4 receptor (Homo sapiens (Human), UniProt P35408). The assay can be described thus: Measurement of EP4 receptor binding affinity ([3H]PGE2 displacement, membrane fraction of Chem-1 cells). As for the experimental part: (§1) With regard to EP3 and EP4 receptors, measurements of receptor binding affinity were carried out according to the following methods in the same manner as in Test example 1.
The membrane fraction was recovered on glass fiber filter paper (GF/B, available from Whatman PLC) pretreated with 0.3% polyethyleneimine by using a cell harvester (M30R, available from Brandel Inc.), and after washing with a buffer solution (50 mM HEPES-NaOH (pH 7.4), 500 mM NaCl, 0.1% BSA), radioactivity was measured with a liquid scintillation analyzer (2000CA, available from Packard). […] The dissociation constant (Kd value) was calculated by Scatchard analysis.

In the next assay the target is human EP3 receptor (Homo sapiens (Human), UniProt P43115). Description: Measurement of EP3 receptor binding affinity ([3H]PGE2 displacement, membrane fraction of Chem-1 cells). The method, then:
as §1
The membrane fraction was recovered on glass fiber filter paper (GF/B, available from Whatman PLC) pretreated with 0.3% polyethyleneimine by using a cell harvester (M30R, available from Brandel Inc.), and after washing with a buffer solution (50 mM Tris-HCl (pH 7.4)), radioactivity was measured with a liquid scintillation analyzer (2000CA, available from Packard). […] The dissociation constant (Kd value) was calculated by Scatchard analysis.

The target of assay [1] is T1, human EP2 receptor (Homo sapiens (Human), UniProt P43116). The assay can be described thus: Measurement of EP2 agonist activity (cAMP amount in HEK 293 cells). The class given is cell-based. Particulars: cAMP increase in HEK 293 cells expressing human EP2 receptor, 30 minutes. As for the experimental part:
Measurement of EP2 agonist activity was carried out according to the method of Wilson et al. (European Journal of Pharmacology, 501, 49 (2004)). HEK 293 cells (ES-562-C, available from Euroscreen S.A.) expressed human EP2 receptor were cultured in a MEM medium containing 10% FBS and seeded at 2×10^4 cells per each well of a 96-well plate. On the next day, the medium was replaced with serum-free MEM medium containing 3-isobutyl-1-methylxanthine (final concentration: 500 μM) and after culturing for 30 minutes, a test compound dissolved in dimethylsulfoxide was added followed by allowing to stand undisturbed in a carbon dioxide gas incubator. After 30 minutes, an amount of cAMP in the cells was measured with a cAMP Biotrak EIA System kit (available from GE Healthcare Bioscience).

The target in assay [2] is T1, human EP2 receptor. Description: Measurement of EP2 receptor binding affinity ([3H]PGE2 displacement, membrane fraction of HEK293 cells). The method, then:
Measurement of EP2 receptor binding affinity was carried out according to the method of Abramovitz et al. (Biochimica et Biophysica Acta, 1483, 285 (2000)). […] The membrane fraction was recovered on glass fiber filter paper (GF/B, available from Whatman PLC) using a cell harvester (M30R, available from Brandel Inc.), and after washing with a buffer solution (10 mM MES-KOH (pH 6.0), 10 mM MgCl2), radioactivity was measured with a liquid scintillation analyzer (2000CA, available from Packard). […] The dissociation constant (Kd value) was calculated by Scatchard analysis.

Structures can show the parent of a compound that is named as a salt. Where two headings read alike, the source gives them in different places.

Ki and EC50 data for 3 compounds are collected here from patent publication US8685986B2, “Medical composition for treatment or prophylaxis of glaucoma” (Ube Industries, Ltd., priority 2009, dated 2014).

One may read the Ki as the equilibrium dissociation constant of an inhibitor or competing ligand from its target. As usually defined, the EC50 is the concentration giving half of the maximal effect. Read a low EC50 as an effect from little substance.

human EP3 receptor, sequence (P43115 whole entry): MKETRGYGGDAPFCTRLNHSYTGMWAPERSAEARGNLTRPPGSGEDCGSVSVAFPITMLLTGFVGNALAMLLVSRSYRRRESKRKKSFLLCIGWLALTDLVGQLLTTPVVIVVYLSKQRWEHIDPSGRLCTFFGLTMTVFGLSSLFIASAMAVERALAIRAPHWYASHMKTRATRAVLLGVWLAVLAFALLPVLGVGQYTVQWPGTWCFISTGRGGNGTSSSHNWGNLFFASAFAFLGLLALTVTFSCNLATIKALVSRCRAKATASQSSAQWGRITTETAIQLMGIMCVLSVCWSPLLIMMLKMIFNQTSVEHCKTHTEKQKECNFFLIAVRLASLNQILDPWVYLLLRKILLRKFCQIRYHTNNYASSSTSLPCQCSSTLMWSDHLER
T1 sequence (P43116 whole entry): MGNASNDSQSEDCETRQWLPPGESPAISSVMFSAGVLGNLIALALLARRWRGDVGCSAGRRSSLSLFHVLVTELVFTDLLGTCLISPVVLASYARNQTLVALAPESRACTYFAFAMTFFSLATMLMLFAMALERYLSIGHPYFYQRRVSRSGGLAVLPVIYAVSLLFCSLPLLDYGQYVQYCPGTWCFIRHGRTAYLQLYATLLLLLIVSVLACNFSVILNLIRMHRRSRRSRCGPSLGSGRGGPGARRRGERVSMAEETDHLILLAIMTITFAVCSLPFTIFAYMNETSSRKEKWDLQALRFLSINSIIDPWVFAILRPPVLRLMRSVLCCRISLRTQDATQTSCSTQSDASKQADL
human EP4 receptor, sequence (P35408 whole entry): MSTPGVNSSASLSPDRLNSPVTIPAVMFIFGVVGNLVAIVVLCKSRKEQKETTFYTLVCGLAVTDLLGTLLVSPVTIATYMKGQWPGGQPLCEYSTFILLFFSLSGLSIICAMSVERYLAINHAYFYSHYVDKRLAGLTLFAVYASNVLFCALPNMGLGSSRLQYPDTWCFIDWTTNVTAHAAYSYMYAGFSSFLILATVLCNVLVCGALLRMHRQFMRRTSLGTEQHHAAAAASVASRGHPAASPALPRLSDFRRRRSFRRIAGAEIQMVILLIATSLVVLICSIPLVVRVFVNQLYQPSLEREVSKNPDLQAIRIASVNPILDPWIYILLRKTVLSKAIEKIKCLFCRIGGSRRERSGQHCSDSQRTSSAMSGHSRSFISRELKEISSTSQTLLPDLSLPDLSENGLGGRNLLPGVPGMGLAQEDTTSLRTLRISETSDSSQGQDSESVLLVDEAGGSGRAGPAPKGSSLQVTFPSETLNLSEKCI

For `O=C(O)CNc1cccc(CN(Cc2ccc(-c3nccs3)cc2)S(=O)(=O)c2ccccn2)n1` [Example 3], the Ki is 4800 nM at human EP4 receptor ([3H]PGE2 1 nM, Chem-1 membrane fraction, Table 4); over 10000 nM at human EP3 receptor ([3H]PGE2 2 nM, Chem-1 membrane fraction, Table 4); 1.9 nM at human EP2 receptor [2] (PGE2 receptor selectivity, Table 4, read-out: EP2 receptor binding affinity Ki value); 1.9 nM on human EP2 receptor [2] ([3H]PGE2 10 nM, HEK293 membrane fraction, Table 2, read-out: Ki value of EP2 receptor binding affinity). Moreover, on human EP2 receptor [1], the response was half-maximal at 0.45 nM (EC50).

Turning to `O=C(O)CNc1cccc(CN(Cc2ccc(-c3nccs3)cc2)S(=O)(=O)c2cccnc2)n1` [Example 11, (6-{(Pyridin-3-ylsulfonyl)[4-(thiazol-2-yl)benzyl]aminomethyl}pyridin-2-ylamino)acetic Acid Trifluoroacetate], the Ki at human EP4 receptor is 2800 nM; on human EP3 receptor it was over 10000 nM.

As for `O=C(O)CNc1cccc(CN(Cc2ccc(-c3nccs3)cc2)S(=O)(=O)c2ccc(F)cc2)n1` [Example 4, (6-{(4-Fluorobenzenesulfonyl)[4-(thiazol-2-yl)benzyl]aminomethyl}pyridin-2-ylamino)acetic Acid], the Ki was 2900 nM on human EP4 receptor, over 10000 nM on human EP3 receptor and 2.8 nM on human EP2 receptor [2] (read-out: Ki value of EP2 receptor binding affinity). The EC50 at human EP2 receptor [1] turned out to be 0.29 nM.
